Measured values as given in patent US9399639B2, “Substituted azaindole compounds, salts, pharmaceutical compositions thereof and methods of use” (Calitor Sciences, LLC, priority 2012, dated 2016).

How the values were obtained:
B-Raf = B-Raf V600E vs wild-type, purified kinase assays; cited from earlier work
[1] = Pharmacokinetics in beagle dogs; type: in vivo; details: vemurafenib dosed
Description: (§1) Compounds disclosed herein are prodrugs. […] However, the prodrug compounds are modified in vivo to produce a parent compound that has known inhibitory activities against certain protein kinases. Kinase inhibition activity of prodrug compounds is established by quantitating the blood or plasma levels of parent compound after prodrug administration. In vivo blood or plasma levels are reported as Cmax (maximum blood or plasma concentration) and AUC (area under curve from zero to a certain period of time or infinity, a measure of total drug exposure). Methods of measuring Cmax, AUC and other pharmacokinetic parameters in dogs and rats are provided in Example C.
(§2) The LC/MS/MS system used in the analysis consists of an Agilent 1200 Series vacuum degasser, binary pump, well-plate autosampler, thermostated column compartment, the Agilent G6430 TripleQuadrupole Mass Spectrometer with an electrospray ionization (ESI) source. Quantitative analysis was carried out using MRM mode. The parameters for MRM transitions are in the Table A.
(§3) An Agilent XDB-C18, 2.1×30 mm, 3.5 μM column was used for the analysis. 5 μL of the samples were injected. Analysis condition: The mobile phase was 0.1% formic acid in water (A) and 0.1% formic acid in methanol (B). The flow rate was 0.4 mL/min. And the gradient of Mobile phase was in the Table B.
(§4) Alternatively, an Agilent 6330 series LC/MS/MS spectrometer equipped with G1312A binary pumps, a G1367A autosampler and a G1314C UV detector was used in the analysis. An ESI source was used on the LC/MS/MS spectrometer. The analysis was done in positive ion mode as appropriate and the MRM transition for each analyte was optimized using standard solution. A Capcell MP-C18 100×4.6 mm I.D., […] column (Phenomenex, Torrance, Calif., USA) was used during the analysis. The mobile phase was 5 mM ammonia acetate, 0.1% MeOH in water (A): 5 mM ammonia acetate, 0.1% MeOH in acetonitrile (B) (70:30, v/v). The flow rate was 0.6 mL/min. Column was maintained at ambient temperature. 20 μL of the samples were injected.
(§5) Selected compounds of the invention and Vemurafenib were assessed in pharmacokinetic studies in mice, rats, dogs or monkeys. The compounds were administered as a water solution, 2% HPMC+1% TWEEN® 80 in water solution, 5% DMSO+5% solutol in saline, 4% MC or capsule. For the intravenous administration, the animals were generally given at 1 or 2 mg/kg dose. For the oral (p.o.) dosing, mice and rats were generally given 5 or 10 mg/kg dose, and dogs and monkeys were generally given 7-100 mg/kg dose. The blood samples (0.3 mL) were drawn at 0.25, 0.5, 1.0, 2.0, 3.0, 4.0, 6.0, 8.0, 12 and 24 h time points or 0.083, 0.25, 0.5, 1.0, 2.0, 4.0, 6.0, 8.0 and 24 h time points and centrifuged at 3,000 or 4000 rpm for 2 to 10 min. The plasma solutions are collected and stored at −20° C. or −70° C. before analyzed by LC/MS/MS as described above.

[2] = cited from earlier work
Colo-205 Tumor Xenograft = assay: Colo-205 tumor xenograft model, tumor growth inhibition; type: in vivo, athymic nude mice; details: Colo-205 xenograft, p.o., 15 days
Description: The efficacy of compounds disclosed herein is evaluated in a standard murine model of tumorigenesis. Human tumor cells (i.e., Colo-205 Tumor Xenograft models) are expended in culture, harvested, and injected subcutaneously onto the rear flank of 6-7 week old female athymic nude mice (BALB/cA nu/nu, Shanghai SLAC Laboratory Animal, Co.) (n=10 for vehicle group, n=8 for each dosing group). When tumor reaches a volume of 100-250 mm^3, animals are randomly divided into vehicle control (for example, 5% PEG400+5% Solutol HS 15 in water or 5% EtOH+5% CremophorEL+1% HCl (11.7%), pH 2.2 in water) and compound groups. Subsequent administration of compound by oral gavage (for example, 6-60 mpk/dose, dissolved in 5% PEG400+5% Solutol HS 15 in water or 5% EtOH+5% CremophorEL+1% HCl (11.7%), pH 2.2 in water) begins anywhere from day 0 to day 15 post tumor cell challenge and generally continues with once a day for the duration of the experiment.
Progression of tumor growth is assessed by tumor volumes and recorded as a function of time. The long (L) and short (W) axes of the subcutaneous tumors are measured with calipers twice weekly, and the tumor volume (TV) calculated as (L×W^2)/2). TGI is calculated from the difference between the median tumor volumes of vehicle-treated and drug-treated mice, expressed as a percentage of the median tumor volume of the vehicle-treated control group, by the following relation:
Initial statistical analysis is done by repeated measures analysis of variance (RMANOVA), Followed by Scheffe post-hoc testing for multiple comparisons. Vehicle alone (2% HPMC+1% Tween-80, or the like) is the negative control.
The compouds described herein were also administrated orally (p.o.) once a day (QD) or (BID) for 15 days in Colo-205 xenograft animal model. At doses of 20 mg/kg, the compouds produced statistically significant inhibition of growth of certain tumors grown subcutaneously in athymic nude mice.

[3] = Pharmacokinetics in SD rats; type: in vivo; details: vemurafenib dosed
Description: as §1, §2, §3, §4, §5

[4] = Sprague-Dawley, rat, plasma, IV 1 mg/kg
[5] = Sprague-Dawley, rat, plasma, PO 10 mg/kg

CCCS(=O)(=O)Nc1ccc(F)c(C(=O)c2c[nH]c3ncc(-c4ccc(Cl)cc4)cc23)c1F [Vemurafenib, N-(3-(5-(4-chlorophenyl)-1H-pyrrolo[2,3-b]pyridine-3-carbonyl)-2,4-difluorophenyl)propane-1-sulfonamide]
selectivity for the V600E mutation over the wild-type kinase (B-Raf): 3 fold | F ([1]; PO 10 mg/kg): 33.4% | AUC(0-t) ([1]; dog, plasma, IV 1 mg/kg): 4880 ng·h/mL | half-life ([1]; dog, plasma, IV 1 mg/kg): 1.59 h | AUC(0-t) ([1]; dog, plasma, PO 10 mg/kg): 16500 ng·h/mL | Cmax ([1]; dog, plasma, PO 10 mg/kg): 2150 ng/mL | Tmax ([1]; dog, plasma, PO 10 mg/kg): 2 h | half-life ([1]; dog, plasma, PO 10 mg/kg): 3.9 h | solubility in water [2]: low solubility in water | TGI % (on the last day of dosing) (Colo-205 Tumor Xenograft; 6 mg/kg/qd): 33% | TGI % (on the last day of dosing) (Colo-205 Tumor Xenograft; 20 mg/kg/bid): 101% | TGI % (on the last day of dosing) (Colo-205 Tumor Xenograft; 20 mg/kg/qd): 73% | TGI % (on the last day of dosing) (Colo-205 Tumor Xenograft; 60 mg/kg/qd): 104% | F ([3]; PO 10 mg/kg): 104% | AUC(0-t) [3, 4]: 25200 ng·h/mL | half-life [3, 4]: 3.75 h | AUC(0-t) [3, 5]: 261000 ng·h/mL | Cmax [3, 5]: 25400 ng/mL | Tmax [3, 5]: 4 h | half-life [3, 5]: 3.54 h
